What is called Cmax is the peak of the concentration-time curve.

This passage reports Cmax results from ChEMBL document CHEMBL5360569, “Inhibition of the pyroptosis-associated inflammasome pathway: The important potential mechanism of ginsenosides in ameliorating diabetes and its complications” (Eur J Med Chem, 2023).

The structures appear in SMILES notation.

A short description of the data set: Cmax in po dosed human plasma. Further details: route po. Format: ADME, organism-based.

Compound `CC(C)=CCC[C@](C)(O[C@H]1O[C@H](CO)[C@@H](O)[C@H](O)[C@H]1O)[C@H]1CC[C@]2(C)[C@@H]1[C@H](O)C[C@@H]1[C@@]3(C)CC[C@H](O)C(C)(C)[C@@H]3CC[C@]12C` displayed a Cmax of 8.35 ng/mL.
With `CC(C)=CCC[C@](C)(O[C@@H]1O[C@H](CO[C@@H]2O[C@H](CO)[C@@H](O)[C@H](O)[C@H]2O)[C@@H](O)[C@H](O)[C@H]1O)[C@H]1CC[C@]2(C)[C@@H]1[C@H](O)C[C@@H]1[C@@]3(C)CC[C@H](O[C@@H]4O[C@H](CO)[C@@H](O)[C@H](O)[C@H]4O[C@@H]4O[C@H](CO)[C@@H](O)[C@H](O)[C@H]4O)C(C)(C)[C@@H]3CC[C@]12C` [GINSENOSIDE RB1] the figure was 3.94 ng/mL.
